{
  "source": "paper PMC6838142",
  "about": "“Nano-Antagonist Alleviates Inflammation and Allows for MRI of Atherosclerosis” (Nanotheranostics, 2019)",
  "key": {"[1]": {"tested_on": "NF-kB", "experiment": "Nanoparticle screening: NFkB activation in RAW-Blue reporter cells", "format": "cell-based, mouse", "description": "A schematic representation of nanoparticle screening is depicted in Supplementary Figure S4. Briefly, RAW-Blue NFkB reporter cells were cultured as per the manufacturer's recommendations. Cells were seeded and cultured overnight in black opaque 96-well plates with a clear bottom at 50,000 per well. Cells were then treated with 1 and 10 µM of nanoparticles containing 1% rhodamine and positive and negative controls (see below) for 30 min on ice followed by washing steps with cold PBS. Next, lipopolysaccharide (LPS) was added at 100 ng/mL and incubated for 6 h at 37 °C, following which the cells were washed again and incubated for 18 h at 37 °C in fresh medium. Next, 20 µL of supernatant was collected and assayed using SEAP detection reagent in a separate clear bottom 96-well plate as per Invivogen instructions (http://www.invivogen.com). Absorbance at OD 650 nm was recorded and was indicative of NFkB activation. In parallel, cells in the opaque plate were washed again and fluorescence was read at 550 nm excitation and 620 nm emission. This signal from rhodamine was indicative of nanoparticle uptake. […] All analysis was performed using Molecular Devices i3 multi-mode plate reader and SoftMax Pro software version 6.2 (Molecular Devices)."}, "[2]": {"tested_on": "RAW cells", "experiment": "Fluorescence microscopy of binding and uptake in RAW cells", "format": "cell-based, mouse", "description": "Figure 1 Screening identifies CCTV as an anti-inflammatory nanoparticle with high affinity for CC chemokine receptor 2. A) A screening of a small library of nanoparticles in lipopolysaccharide (LPS)-stimulated macrophage reporter cells (RAW-Blue) identified CCTV, which downregulates nuclear factor-kappa B (NF-κB) activity. Each point on the plot represents a relative activity of NF-κB (X-coordinate) and corresponding nanoparticle content per mg of cell protein (Y-coordinate) calculated from nanoparticle fluorescence. […] Dexamethasone (Dex) is an NF-κB inhibitor and was used as a positive control. Vehicle-treated and unstained (US) cells served as a negative control. B) CCTV binding to the cell surface was validated in RAW cells using fluorescence microscopy. The cells were stained at 4 °C or room temperature for 30 min with CCTV or vehicle nanoparticles (sudo-colored green). Lysosomes were visualized after staining with LAMP1 antibody (red). Nuclei were stained using Hoechst 33342 (blue). C) The uptake of CCTV was inhibited in the presence of 5 µM cytochalasin D (cyto D). DMSO served as vehicle control. Calcein AM was used for whole cell staining. D) CCTV binding to a receptor on the cell surface was studied by flow cytometry in the presence and absence of the excess (1 mM) of the free peptide. E) The Basic Local Alignment Search Tool (BLAST) analysis determined that CCTV peptide sequence repeats in mouse and human CC chemokine receptor family. Only the first 50 amino acids are shown. F) Chemical structure of CCTV and its mirror analog VTCC and their possible conjugation strategies that include N- (N-term.) and C-terminus (C-term.) as well as sulfhydryl attachment. […]\nFor a targeted nanotherapy to be effective, the nanoparticles must have affinity to a specific cell type, usually determined by cell surface binding. […] Thus, we used the mouse macrophage reporter cell line RAW-Blue that allowed for monitoring activity of Nuclear Factor-kappa B (NF-kB) and also enabled In vitro quantitation of nanoparticle binding to the cell surface. […]"}, "[3]": {"tested_on": "BMDMs", "experiment": "CCL2-induced actin polymerization in BMDMs", "format": "cell-based", "settings": "6 h pre-treatment, 500 nM recombinant mouse CCL2; 5 µM; phalloidin staining", "description": "Next, cells were washed with PBS and recombinant mouse CCL2 was added to a final concentration of 500 nM. Then, cells were incubated for varying times (indicated in Figure 2G), after which they were immediately placed on ice and washed 3 times with cold PBS. Actin polymerization was then visualized following staining with phalloidin Alexa Fluor 633, according to the manufacturer's instructions."}, "[4]": {"tested_on": "F4/80-positive plaque macrophages", "experiment": "Immunohistochemistry / plaque macrophage co-staining", "format": "in vivo, mouse", "settings": "mouse, in vivo", "description": "Twenty-four hours after nanoparticle injection (see above), mice were euthanized and abdominal aortas were isolated and embedded in Optimal Cutting Temperature compound. After cryotome-sectioning, resulting in 20-30 slides per mouse, 15 slides were sent to Ohio State laser capture microdissection core lab for capture and analysis. The rest of the slides were processed as follows: after fixation in methanol:acetone 50:50 at -20 °C, slides were hydrated in PBS, blocked for 30 min in fish serum (Aqua Block) and stained for 1 h with primary antibodies against F4/80 followed washing and staining with HRP-conjugated secondary antibody for 30 min. DAB peroxidase kit was then used as per manufacturer's instructions followed by mounting. DAB and antibody staining (but not wash steps) was omitted in slides designated for nanoparticle fluorescence visualization. Nanoparticles fluorescence was visualized with Zeiss 510 LSM-meta confocal microscope and 20x objective. DAB F4/80 staining was visualized with Nikon FN1 microscope and same power objective."}, "[5]": {"tested_on": "BMDMs", "experiment": "DCFDA ROS assay", "format": "cell-based, mouse", "settings": "LPS (100 ng/mL) BMDMs, 12 experiments", "description": "GSH /GSSG, lactate dehydrogenase (LDH) and DCFDA assays were performed according to the manufacturer's instructions. The assays were purchased from vendors as indicated in Supplemental Table S1."}},
  "note": "Entries after “also recorded” stand apart in the source; their conditions may differ.",
  "data": [
    {"substance": "CCTV", "values": [
      {"measurement": "NF-kB activity compared with dexamethasone", "setting": "[1]; 10 µM nanoparticles vs Dex 1 mM, LPS 100 ng/mL", "result": "almost to the same level as that in cells treated with NF-kB inhibitor dexamethasone (Dex) at 1 mM"},
      {"measurement": "NF-kB activity", "setting": "[1]; 1 and 10 µM nanoparticles, 30 min on ice, LPS 100 ng/mL 6 h, SEAP OD 650 nm", "result": "significantly downregulated NF-kB activity"},
      {"measurement": "uptake in presence of cytochalasin D", "setting": "[2]; 5 µM cytochalasin D, DMSO vehicle control", "result": "inhibited"},
      {"measurement": "cell-surface binding at 4oC", "setting": "[2]; RAW cells, 4 °C, 30 min, vs vehicle nanoparticles", "result": "rapidly bound to the cell surface"},
      {"measurement": "uptake at room temperature", "setting": "[2]; RAW cells, room temperature, LAMP1 co-staining", "result": "mediated by endocytosis"},
      {"measurement": "actin polymerization", "setting": "[3]", "result": "significantly inhibited actin polymerization"},
      {"measurement": "co-staining with F4/80 in plaque", "setting": "[4]", "result": "co-stained with CCTV"},
      {"measurement": "ROS production", "setting": "[5]", "result": "inhibited ROS production in response to LPS; also recorded: significantly blunted"}
    ]}
  ]
}
